Patent US6489297B1, “Vasoactive intestinal peptide analogs” (Dabur Research Foundation, priority 2000, dated 2002)
Where a SMILES comes first, the peptide text is derived from it. [ ]: non-standard residue; d: D form. dPhe(4-Cl) = N[C@H](Cc1ccc(Cl)cc1)C(=O)O; Dpg = CCCC(N)(CCC)C(=O)O; Ac5c = NC1(C(=O)O)CCCC1; Deg = CCC(N)(CC)C(=O)O; Aib = CC(C)(N)C(=O)O

Assays:
Type in all cases: cell-based, human
Details in all cases: 72 hours
KB (oral) = assay: MTT cytotoxicity assay, KB cells
Protocol: (§1) The cytotoxic activity of synthesized peptides was tested on […] human tumor cell lines namely PA-1 (ovary), SW620 (colon) HuTu80 (duodenum), L132 (lung), U87MG (glioblastoma), KB (oral), MIAPaCa2(pancreas), A549(non small cell lung) and HT-29(colon). The tumor cells were collected at exponential growth phase and resuspended in medium (1.5×10^6 cells/ml in RPMI 1640 containing 10% FBS). 150 μl of medium was added to the wells of a 96-well tissue culture plate (Nunc, Denmark) followed by 30 μl of cell suspension. The plate was left in incubator (37° C., 5% CO2) overnight. 20 μl of the peptide (100 pM to 1 uM concentration) was added to marked wells of the 96-well plate. Each concentration was plated in triplicates. 20 μl of medium alone was added to control wells while wells without cells served as blanks. A total volume of 200 μl was ensured in each well and plate was left in incubator (37° C., 5% CO2). After 72 hours of incubation an MTT assay was performed and percentage cytotoxicity was calculated with respect to control cells. Following Tables show the maximum cytotoxicity achieved on various cell lines.

SW620 (colon) = assay: MTT cytotoxicity assay, SW620 cells
Protocol: as §1

U87MG (glioblastoma) = assay: MTT cytotoxicity assay, U87MG cells
Protocol: as §1

HuTu80 (duodenum) = assay: MTT cytotoxicity assay, HuTu80 cells
Protocol: as §1

L132 (lung) = assay: MTT cytotoxicity assay, L132 cells
Protocol: as §1

PA-1 (ovary) = assay: MTT cytotoxicity assay, PA-1 cells
Protocol: as §1

SMILES | Percentage cytotoxicity (KB (oral); 100 pM) | Percentage cytotoxicity (KB (oral); 1 nM) | Percentage cytotoxicity (KB (oral); 10 nM) | Percentage cytotoxicity (KB (oral); 100 nM) | Percentage cytotoxicity (KB (oral); 1 μM) | Percentage cytotoxicity (SW620 (colon); SW620, 100 pM) | Percentage cytotoxicity (SW620 (colon); SW620, 1 nM) | Percentage cytotoxicity (SW620 (colon); SW620, 10 nM) | Percentage cytotoxicity (SW620 (colon); SW620, 100 nM) | Percentage cytotoxicity (SW620 (colon); SW620, 1 μM) | Percentage cytotoxicity (U87MG (glioblastoma); 100 pM) | Percentage cytotoxicity (U87MG (glioblastoma); 1 nM) | Percentage cytotoxicity (U87MG (glioblastoma); 10 nM) | Percentage cytotoxicity (U87MG (glioblastoma); 100 nM) | Percentage cytotoxicity (U87MG (glioblastoma); 1 μM) | Percentage cytotoxicity (HuTu80 (duodenum); HuTu80, 100 pM) | Percentage cytotoxicity (HuTu80 (duodenum); HuTu80, 1 nM) | Percentage cytotoxicity (HuTu80 (duodenum); HuTu80, 10 nM) | Percentage cytotoxicity (HuTu80 (duodenum); HuTu80, 100 nM) | Percentage cytotoxicity (HuTu80 (duodenum); HuTu80, 1 μM) | other results
CC[C@H](C)[C@H](NC(=O)[C@H](CO)NC(=O)[C@H](CC(N)=O)NC(=O)[C@H](CC(C)C)NC(=O)[C@H](Cc1ccc(O)cc1)NC(=O)[C@H](CCCCN)NC(=O)[C@H](CCCCN)NC(=O)[C@@H](NC(=O)[C@H](C)NC(=O)[C@H](CC(C)C)NC(=O)[C@H](CCC(N)=O)NC(=O)[C@H](CCCCN)NC(=O)[C@H](CCCNC(=N)N)NC(=O)[C@H](CC(C)C)NC(=O)[C@H](CCCNC(=N)N)NC(=O)[C@@H](NC(=O)[C@H](Cc1ccc(O)cc1)NC(=O)[C@H](CC(N)=O)NC(=O)[C@H](CC(=O)O)NC(=O)[C@@H](NC(=O)[C@@H](Cc1ccc(Cl)cc1)NC(=O)[C@@H](NC(=O)C(CC)(CC)NC(=O)[C@H](CC(=O)O)NC(=O)[C@H](CO)NC(=O)[C@@H](N)Cc1c[nH]cn1)C(C)C)[C@@H](C)O)[C@@H](C)O)C(C)C)C(=O)N[C@@H](CC(C)C)C(=O)N[C@@H](CC(N)=O)C(N)=O [SEQ ID NO: 3] (H-HSD[Deg]V[dPhe(4-Cl)]TDNYTRLRKQLAVKKYLNSILN-NH2) | 13 ± 8.5% | 24.5 ± 9.5% | 22 ± 8.2% | 18 ± 8.5% | 14 ± 3.4% | 15.9 ± 6.6% | 29 ± 5.6% | 27 ± 5.5% | 22 ± 7.3% | 16 ± 3.4% | 11 ± 7.8% | 16 ± 6.6% | 28 ± 7.5% | 26 ± 6.7% | 25 ± 4.6% | 14 ± 7.8% | 29 ± 6.2% | 28 ± 4.7% | 24 ± 7.8% | 14.5 ± 7.1% | Percentage cytotoxicity (L132 (lung); L132, 100 pM): 14 ± 5.6%; Percentage cytotoxicity (L132 (lung); L132, 1 nM): 23 ± 3.5%; Percentage cytotoxicity (L132 (lung); L132, 10 nM): 29 ± 6.7%; Percentage cytotoxicity (L132 (lung); L132, 100 nM): 26 ± 6.5%; Percentage cytotoxicity (L132 (lung); L132, 1 μM): 14 ± 6.5%; Percentage cytotoxicity (PA-1 (ovary); PA1, 100 pM): 15 ± 4.5%; Percentage cytotoxicity (PA-1 (ovary); PA1, 1 nM): 29 ± 5.8%; Percentage cytotoxicity (PA-1 (ovary); PA1, 10 nM): 22 ± 4.5%; Percentage cytotoxicity (PA-1 (ovary); PA1, 100 nM): 23.5 ± 5.2%; Percentage cytotoxicity (PA-1 (ovary); PA1, 1 μM): 22.1 ± 4.5%
CC[C@H](C)[C@H](NC(=O)[C@H](CO)NC(=O)[C@H](CC(N)=O)NC(=O)[C@H](CC(C)C)NC(=O)[C@H](Cc1ccc(O)cc1)NC(=O)[C@H](CCCCN)NC(=O)[C@H](CCCCN)NC(=O)[C@@H](NC(=O)[C@H](C)NC(=O)[C@H](CC(C)C)NC(=O)[C@H](CCC(N)=O)NC(=O)[C@H](CCCCN)NC(=O)[C@H](CCCNC(=N)N)NC(=O)[C@H](CC(C)C)NC(=O)[C@H](CCCNC(=N)N)NC(=O)[C@@H](NC(=O)[C@H](Cc1ccc(O)cc1)NC(=O)[C@H](CC(N)=O)NC(=O)[C@H](CC(=O)O)NC(=O)[C@@H](NC(=O)[C@@H](Cc1ccc(Cl)cc1)NC(=O)[C@@H](NC(=O)C1(NC(=O)[C@H](CC(=O)O)NC(=O)[C@H](CO)NC(=O)[C@@H](N)Cc2c[nH]cn2)CCCC1)C(C)C)[C@@H](C)O)[C@@H](C)O)C(C)C)C(=O)N[C@@H](CC(C)C)C(=O)N[C@@H](CC(N)=O)C(N)=O [SEQ ID NO: 4] (H-HSD[Ac5c]V[dPhe(4-Cl)]TDNYTRLRKQLAVKKYLNSILN-NH2) | 13 ± 8.0% | 30 ± 7.8% | 27 ± 7.8% | 26 ± 5.6% | 27 ± 4.3% | 16.9 ± 5.5% | 31 ± 6.5% | 28.5 ± 4.5% | 23 ± 6.7% | 15 ± 4.5% | 10 ± 4.6% | 15 ± 7.8% | 29 ± 6.7% | 28 ± 7.7% | 27 ± 5.5% | 11 ± 8.0% | 30 ± 7.0% | 27 ± 5.0% | 27 ± 7.9% | 15.5 ± 6.5% | Percentage cytotoxicity (L132 (lung); L132, 100 pM): 11 ± 8.0%; Percentage cytotoxicity (L132 (lung); L132, 1 nM): 27 ± 4.5%; Percentage cytotoxicity (L132 (lung); L132, 10 nM): 30 ± 5.5%; Percentage cytotoxicity (L132 (lung); L132, 100 nM): 28 ± 5.5%; Percentage cytotoxicity (L132 (lung); L132, 1 μM): 13 ± 4.5%; Percentage cytotoxicity (PA-1 (ovary); PA1, 100 pM): 16.1 ± 0.0%; Percentage cytotoxicity (PA-1 (ovary); PA1, 1 nM): 30 ± 6.0%; Percentage cytotoxicity (PA-1 (ovary); PA1, 10 nM): 23 ± 3.5%; Percentage cytotoxicity (PA-1 (ovary); PA1, 100 nM): 22.3 ± 4.5%; Percentage cytotoxicity (PA-1 (ovary); PA1, 1 μM): 21 ± 5.5%
CCCC(CCC)(NC(=O)[C@H](CCC(N)=O)NC(=O)[C@H](CCCCN)NC(=O)[C@H](CCCNC(=N)N)NC(=O)[C@H](CC(C)C)NC(=O)[C@H](CCCNC(=N)N)NC(=O)[C@@H](NC(=O)[C@H](Cc1ccc(O)cc1)NC(=O)[C@H](CC(N)=O)NC(=O)[C@H](CC(=O)O)NC(=O)[C@@H](NC(=O)[C@H](Cc1ccccc1)NC(=O)[C@@H](NC(=O)C(C)(C)NC(=O)[C@H](CC(=O)O)NC(=O)[C@H](CO)NC(=O)[C@@H](N)Cc1c[nH]cn1)C(C)C)[C@@H](C)O)[C@@H](C)O)C(=O)N[C@@H](C)C(=O)N[C@H](C(=O)N[C@@H](CCCCN)C(=O)N[C@@H](CCCCN)C(=O)N[C@@H](Cc1ccc(O)cc1)C(=O)N[C@@H](CC(C)C)C(=O)N[C@@H](CC(N)=O)C(=O)N[C@@H](CO)C(=O)N[C@H](C(=O)N[C@@H](CC(C)C)C(=O)N[C@@H](CC(N)=O)C(N)=O)[C@@H](C)CC)C(C)C [SEQ ID NO: 9, His-Ser-Asp-Aib-Val-Phe-Thr-Asp-Asn-Tyr-Thr-Arg-Leu-Arg-Lys-Gln-Dpg-Ala-Val-Lys-Lys-Tyr-Leu-Asn-Ser-Ile-Leu-Asn-NH2] (H-HSD[Aib]VFTDNYTRLRKQ[Dpg]AVKKYLNSILN-NH2) | 13 ± 5.0% | 21.5 ± 4.5% | 16.7 ± 3.2% | 16.7 ± 5.1% | 10.5 ± 6.5% | 15.9 ± 4.5% | 28 ± 5.0% | 27 ± 3.4% | 21 ± 3.6% | 16.7 ± 4.1% | 11.5 ± 5.0% | 13.7 ± 3.6% | 26.7 ± 3.5% | 18.9 ± 6.5% | 12.5 ± 6.5% | 14.6 ± 2.7% | 28.5 ± 3.2% | 26 ± 5.5% | 23 ± 6.0% | 14.6 ± 5.1% | Percentage cytotoxicity (L132 (lung); L132, 100 pM): 17 ± 2.3%; Percentage cytotoxicity (L132 (lung); L132, 1 nM): 20 ± 0.0%; Percentage cytotoxicity (L132 (lung); L132, 10 nM): 18.9 ± 6.0%; Percentage cytotoxicity (L132 (lung); L132, 100 nM): 17.5 ± 5.5%; Percentage cytotoxicity (L132 (lung); L132, 1 μM): 13.6 ± 5.6%; Percentage cytotoxicity (PA-1 (ovary); PA1, 100 pM): 15.5 ± 3.3%; Percentage cytotoxicity (PA-1 (ovary); PA1, 1 nM): 27.8 ± 4.3%; Percentage cytotoxicity (PA-1 (ovary); PA1, 10 nM): 25.6 ± 4.5%; Percentage cytotoxicity (PA-1 (ovary); PA1, 100 nM): 17.4 ± 3.2%; Percentage cytotoxicity (PA-1 (ovary); PA1, 1 μM): 15.1 ± 2.3%
